According to EPA's ToxValDB 9.5:
Values after ≈ are worked out from the molar mass of the structure shown. Values joined by “and” are separate entries in the source; they are usually repeats but may differ in a detail not shown here. Equal entries are not always repeated.

Assays:
Canidae [1] = conditions: subchronic; duration: 13 weeks; oral; diet; F; Beagle
Oryctolagus sp. = conditions: for LD50: acute
Rattus norvegicus [2] = conditions: for LC50 / LD50: acute
Canidae [3] = conditions: chronic; oral; diet; M/F; Dog Other; rbc and plasma cholinesterase inhibition, and testicular and uterine effects
Rattus norvegicus [4] = conditions: Hershberger; duration: 10 days; oral; gavage; Sprague-Dawley; inactive + Negative + Negative + neither + negative
Canidae [5] = conditions: chronic; duration: 1 years; oral; diet; Dog Other; Blood: Cholinesterase inhibition + Testis: Effects + Uterus: Effects
Rattus norvegicus [6] = test: LD40; higher = less toxic; conditions: acute; oral; gavage; Sprague-Dawley
Canidae [7] = conditions: chronic; duration: 23 weeks; oral; gavage; Beagle
Cricetulus sp. = conditions: duration: 1 days, injection, Other
Monkey = conditions: chronic, duration: 18 months
Mus musculus = conditions: for LD50: acute
Sus scrofa = conditions: chronic; duration: 123 days; dermal; Not specified
Rattus norvegicus [8] = test: LC0; higher = less toxic; conditions: acute; inhalation; Sprague-Dawley
Rattus norvegicus [9] = test: LC10; higher = less toxic; conditions: acute; inhalation; Sprague-Dawley
[10] = subchronic, duration: 30 days, dermal, New Zealand
[11] = chronic, duration: 18 months, oral, gavage, Sprague-Dawley
[12] = subchronic, duration: 13 weeks, inhalation, Sprague-Dawley

## c1ccc2c(c1)Nc1ccccc1S2 [Phenothiazine]
Canidae [1]
  NOAEL: 1.59 mg/kg-day

## CNC(=O)Oc1cccc2c1OC(C)(C)C2 [Carbofuran]
Oryctolagus sp.; dermal, semiocclusive, New Zealand
  LD50: < 2000 mg/kg
Oryctolagus sp.; reproduction developmental, oral, gavage, F, New Zealand
  NOAEL: ≥ 2 mg/kg-day
Rattus norvegicus [2]; inhalation, particle, Sprague-Dawley
  LC50: 0.05 µg/mL (≈ 0.226 µM)
Rattus norvegicus [2]; oral, diet, Sprague-Dawley
  LD50: 5.3 mg/kg and 13.2 mg/kg
Rattus norvegicus [2]; oral, gavage, Sprague-Dawley
  LD50: 7 mg/kg and 8.8 mg/kg and 13.3 mg/kg
Rattus norvegicus [2]; developmental, duration: 14 days, oral, diet, Sprague-Dawley
  NOAEL: 160 ppm
Rattus norvegicus [2]; reproduction developmental, duration: 14 days, oral, diet, F, Sprague-Dawley
  NOAEL: 20 ppm
Rattus norvegicus [2]; reproduction developmental, oral, diet, Crl:CD(SD)
  NOAEL: 20 ppm
Canidae [3]
  LEL: 12.5 mg/kg-day
  NOEL: 0.5 mg/kg-day
Rattus norvegicus [4]
  NOEL: 0.3 mg/kg-day
Canidae [5]
  NOEL: 0.5 mg/kg-day
Rattus norvegicus [6]
  LD40: 5.6 mg/kg

## CS(C)=O [Dimethyl sulfoxide]
Canidae [7]
  LOAEL: 2500 mg/kg-day
Cricetulus sp.; developmental, Intraperitoneal
  NOAEL: < 5500 mg/kg-day
Cricetulus sp.; developmental, intravenous, intraperitoneal
  NOAEL: 2500 mg/kg-day
Cricetulus sp.; reproduction developmental, Intraperitoneal, F
  NOAEL: < 5500 mg/kg-day
Cricetulus sp.; reproduction developmental, intravenous, intraperitoneal, F
  NOAEL: 2500 mg/kg-day
Monkey; dermal
  NOAEL: 8910 mg/kg-day
Monkey; oral, gavage
  LOAEL: 8910 mg/kg-day
  NOAEL: 2970 mg/kg-day
Mus musculus; dermal
  LD50: 50000 mg/kg
Mus musculus; injection, intravenous
  LD50: 3100 mg/kg and 5750 mg/kg
Mus musculus; oral
  LD50: ≥ 19200 mg/kg and ≤ 22000 mg/kg
Mus musculus; developmental, duration: 7 days, oral, gavage, Swiss
  NOAEL: 12000 mg/kg-day
Mus musculus; short-term, duration: 3 weeks, oral, gavage, Swiss
  LOAEL: 2000 mg/kg-day
Mus musculus; subchronic, duration: 5 weeks, injection, Intraperitoneal, Swiss
  NOAEL: 2500 mg/kg-day
Oryctolagus sp.; chronic, duration: 6 months, dermal, New Zealand
  LOAEL: 1650 mg/kg-day
Oryctolagus sp.; chronic, duration: 22 weeks, dermal, New Zealand
  LOAEL: 1650 mg/kg-day
Oryctolagus sp.; developmental, duration: 9 days, injection, subcutaneous
  NOAEL: 4000 mg/kg-day
Oryctolagus sp.; developmental, duration: 9 days, oral, gavage
  NOAEL: 5000 mg/kg-day
Oryctolagus sp.; developmental, injection, subcutaneous
  NOAEL: 4000 mg/kg-day
Oryctolagus sp.; [10]
  LOAEL: 5000 mg/kg-day
  NOAEL: 1000 mg/kg-day
Oryctolagus sp.; subchronic, duration: 90 days, dermal, New Zealand
  NOAEL: 2200 mg/kg-day
Rattus norvegicus [2]; dermal
  LD50: 40000 mg/kg
Rattus norvegicus [2]; injection, intravenous
  LD50: 5360 mg/kg
Rattus norvegicus [2]; oral, gavage
  LD50: 28300 mg/kg
Rattus norvegicus [2]; [11]
  LOAEL: 9900 mg/kg-day
  NOAEL: 1100 mg/kg-day
Rattus norvegicus [2]; developmental, duration: 1 days, injection, subcutaneous, Sprague-Dawley
  NOAEL: < 10200 mg/kg-day
Rattus norvegicus [2]; reproduction developmental, duration: 6 days, oral, gavage, Wistar, generation: F1
  NOAEL: 10000 mg/kg-day
Rattus norvegicus [2]; reproduction developmental, duration: 10 days, injection, Intraperitoneal, F
  NOAEL: < 2000 mg/kg-day
Rattus norvegicus [2]; reproduction developmental, oral, gavage, Sprague-Dawley, generation: F0
  NOAEL: 5000 mg/kg-day
Rattus norvegicus [2]; reproduction developmental, oral, gavage, Sprague-Dawley, generation: F1
  NOAEL: 5000 mg/kg-day
Rattus norvegicus [2]; subchronic, duration: 6 weeks, inhalation, Sprague-Dawley
  NOAEC: 0.2 mg/L
Rattus norvegicus [2]; [12]
  LOAEC: 2.78 mg/L
  NOAEC: 0.964 mg/L
Sus scrofa
  NOAEL: 825 mg/kg-day
Rattus norvegicus [8]
  LC0: > 2.9 mg/L

## CC(C)C#N [2-Methylpropanenitrile]
Oryctolagus sp.; dermal, occlusive, New Zealand
  LD50: 239 mg/kg
Rattus norvegicus [2]; inhalation, Sprague-Dawley
  LC50: > 2830 mg/m3
Rattus norvegicus [2]; inhalation, albino
  LC50: ≥ 1410 mg/m3 and ≤ 2830 mg/m3
Rattus norvegicus [2]; oral
  LD50: > 50 mg/kg and ≤ 100 mg/kg
Rattus norvegicus [2]; oral, gavage
  LD50: 77 mg/kg
Rattus norvegicus [2]; reproduction developmental, duration: 6 days, inhalation, F, Sprague-Dawley
  NOAEL: 283 mg/m3
Rattus norvegicus [9]
  LC10: 3320 mg/m3
